Reference: patent US20220260574A1, “METHODS OF DETERMINING THERAPIES BASED ON SINGLE CELL CHARACTERIZATION OF CIRCULATING TUMOR CELLS (CTCS) IN METASTATIC DISEASE” (Epic Sciences, Inc., priority 2017, published 2022)
Like-named read-outs stand apart in the source and are kept apart here.

Legend:
mCRPC patients [1] = assay: Carboplatin therapy in mCRPC patients with high vs low pLST baseline CTCs (PSA response); type: in vivo, human
mCRPC patients [2] = assay: Single CTC sequencing of a 2nd line post taxane patient treated with enzalutamide; type: in vivo, human; details: 2nd line post taxane patient with lack of clonal diversity
Text: Phlebotomy samples were obtained at a Decision Point in management: therapy was chosen by the treating physician. Standard of care collection from 221 mCRPC patients at decision points. Baseline blood draw prior to A, E or T. Followed by PSA, time on drug, radiographic progression free (rPFS) & overall survival (OS). 9225 CTCs identified and characterized phenotypically. 741 CTCs from 31 patients were studied by whole genome CNV for clonality and gene amplifications/deletions. Patients were ranked based on how heterogeneous or diverse the cells were at each decision point. […] After a CTC is phenotypically measured, the coverslip is removed and the individual CTC is aspirated and put into an individual tube. The CTCs are amplified and prepared for sequencing (FIG. 15). Following sequencing informatics were performed to assess clonality and amplification/deletions (FIG. 15). […] Each patient sample was analyzed separately. Single CTC genomic CNV plots were curated individually versus other CTCs in patient sample. Clonality was characterized based on large genomic variations and focal amplifications or deletion of known driver alterations in at least 2 CTCs, for example, two cells from same patient with or without a loss of chromosome 5q or two clones from a patient with and without AR amplification (FIG. 16).

mCRPC patients [3] = tested on: mCRPC patients
[4] = one 8th line mCRPC patient with 4.3% baseline CTCs as high pLST
[5] = one 10th line mCRPC patient with 96% baseline CTCs as high pLST
[6] = patients without vs with the presence of cell type K

## N.N.O=C([O-])C1(C(=O)[O-])CCC1.[Pt+2] [carboplatin]
mCRPC patients [1]; [4]
  12 week PSA change: +2.1%
  response to carboplatin therapy: did not respond
mCRPC patients [1]; [5]
  12 week PSA change: −50.1%
  response to carboplatin therapy: responded

## CNC(=O)c1ccc(N2C(=S)N(c3ccc(C#N)c(C(F)(F)F)c3)C(=O)C2(C)C)cc1F [enzalutamide]
mCRPC patients [2]
  response to therapy: responded
mCRPC patients [3]; all patients, Abi vs Enza
  Time on therapy (Tx): similar
  overall survival (OS): similar
mCRPC patients [3]; all patients, Enza vs Abi, p=0.025
  radiographic Progression Free Survival (rPFS): significantly better
mCRPC patients [3]; multivariate cox model, =0 if Abi, =1 if Enza, p 0.4167
  HR (hazards of death, overall survival), feature Therapy: 0.6543
mCRPC patients [3]; multivariate cox model, =0 if not K+ and Enza, =1 if K+ and Enza, p 0.0306
  HR (hazards of death, overall survival), feature Cell Type K: Therapy Interaction: 5.2792
mCRPC patients [3]; patients without the presence of cell type K
  hazards of death, therapy favoured in multivariate cox proportional hazards model: more favorable
mCRPC patients [3]; patients without the presence of cell type K, Enza vs Abi
  OS: no difference
mCRPC patients [3]; patients without the presence of cell type K, Enza vs Abi, p=0.006
  rPFS: significantly better
mCRPC patients [3]; [6]
  OS: significant improvement
  Time on Tx: significant improvement
  rPFS: significant improvement
